In patent publication US9018188B2, “MicroRNA inhibitors” (Ottawa Hospital Research Institute, priority 2011, dated 2015):

Key:
[1] = IPGTT glucose tolerance; format: in vivo, mouse; settings: both diet groups
Description: (B) Retarded body weight increase over a 16-week body weight monitoring time course in mice received miR-133 ASO treatment during TA muscle regeneration (n=6 per treatment group per diet group). […] Values of total energy expenditure were plotted without normalization to lean body mass. (D) Physical activities measured within light and dark cycles during indirect calorimetry (C) reveal increased physical activities within the dark cycle for miR-133 ASO treated mice (fed the RD). Physical activities are presented as arithmetic means of beam breaking events at X-, Y- and Z-dimensions. (E) IPGTT tests for C57BL/6 mice received either control- or miR-133 ASO treatment (fed the RD; n=6 per group). Error bars: S.E.M., asterisk: significant pair-wise comparison by t-test, *: p≦0.05, **: p≦0.01, ***: p≦0.001, n.s.: not significant.
This discrepancy may be related to the abnormally low respiratory exchange ratio (˜0.76) in the control mice fed with HFD (FIG. 7D), which indicates an increased proportion of lipid oxidation in the control mice. […] In addition, miR-133 ASO treatment also led to much improved glucose tolerance in both diet groups (FIGS. 6E & 7F).

[2] = system: TA muscles; test: [18F]-FDG PET imaging of treated TA muscles; format: in vivo, mouse; settings: after CL316,243-stimulated sympathetic activation; normalized to contralateral TA muscles; 2 months after treatment
Description: Metabolically active BAT has been identified in adult human by [^18F]-fluorodeoxyglucose positron emission tomography ([^18F]-FDG PET), due to dramatic glucose uptake by this tissue after sympathetic activation (Nedergaard et al., 2007). To visualize active brown adipose tissue within muscle, Applicant performed [^18F]-FDG PET imaging on control- or miR-133 ASO treated mice (n=5 for 133 ASO treated mice, n=4 for control treated muscle; 2 months after treatment) after acute sympathetic activation by selective β3-adrenergic receptor agonist, CL316,243 (FIG. 5E). Applicant observed a dramatic increase of FDG uptake in miR-133 ASO treated TA muscles compared to contralateral TA muscles or TA muscles within control ASO treated mice. To rule out possible direct and indirect effects of CL316,243 on glucose/FDG uptake by skeletal muscle cells, Applicant normalized FDG activities derived from ROIs of treated TA muscles to those of contralateral TA muscles (FIG. 5F). […] Such a drastic increase was not observed without the sympathetic activation preceding anesthesia (baseline).
Mouse PET imaging was performed with an Inveon PET scanner (Siemens Preclinical Solutions, Knoxyille, Tenn., USA). Control- or miR-133 ASO treated C57BL/6 male mice fed with regular diet were anesthetized under 2% isoflurane. […]

## *mA*mUmAmGmCmUmGmGmUmUmGmAmAmGmGmGmGmAmC*mC*mA*mA*mAChl [miR-133 ASO]
[1]
  glucose tolerance: much improved
[2]
  increase of glucose/FDG uptake compared to control: 1.3 fold
